This is an account of results in US20250092001A1, “NOVEL EXCITATORY AMINO ACID GLUTAMATE TRANSPORT MODULATORS AND METHODS USING THE SAME” (Drexel University, priority 2022, published 2025).

The subject of data set [1] is Drosophila model of Huntington's Disease (Htt model). Put plainly: Larval locomotion assay in Drosophila Huntington's disease model. Format: in vivo. Particulars: third instar larvae; concentrations as low as two-fold below EC50 and one-fold below EC50. From the text:
FIG. 6A illustrate certain aspects of a locomotion assay used to assay the locomotive activities. […] FIGS. 6B and 6C depict the results of the locomotion assay results of wild-type Drosophila (“WT”), as well as Drosophila of a Huntington's disease model treated with vehicle (“Veh”) or with various concentrations of two exemplary GLT-1 modulators. […] The Drosophila Htt model is produced by crossing UAS-Htt([…]) male flies with elav-Gal4 virgin female flies. Both fly strains were purchased from Bloomington Drosophila Stock Center (BDSC, Indiana, USA). […] Locomotion assays were conducted by transferring the third instar larvae of flies to agar plates (FIG. 6A) and counting the number of grid lines crossed in 30 seconds.

For data set [2], the system named is R6/2 mice (Huntington disease model). Put plainly: Open field locomotion test. Format: in vivo, mouse. As to conditions: GTS467 2, 4, and 10 mg/kg. Here is the method: FIG. 9A depicts the results of a locomotion test. In the locomotion test of FIG. 9A, wildtype and R6/2 mice treated with vehicle or different doses of GTS467 (2, 4, and 10 mg/kg) or ceftriaxone (200 mg/kg) were subjected to the open field test to evaluate their locomotor abilities in a 44×44 cm and 43×43 cm square open field arena. Animals were placed individually in the open field arena and behavior was recorded for a period of 5 minutes under dim light and low noise conditions. Animal behavior was recorded using an overhead camera and the distance moved was recorded and quantified using the Noldus ethovision XT-14 software. FIG. 9B depicts the results of a memory task test. Referring to FIG. 9B, to test for memory impairment a novel object recognition assay was performed. A 44×44 cm square shaped open field arena was used to perform this test at week 12 and week 15. The behavioral evaluation was performed in 2 sets, each set having equal number of animals. […] The behavior was recorded under dim light and low noise conditions using an overhead camera. Cumulative duration with both the objects, total object exploration (sec), distance travelled (cm) was quantified using the Noldus ethovision XT 14 software. […]

In a further data set the test system is PD rats. Put plainly: Elevated plus maze (EPM). Format: in vivo, rat. Particulars: male PD rats; 4 mg/kg; 10 min post treatment. The protocol:
Referring to FIGS. 11-13, in the elevated plus maze test, male PD rats were treated with either saline or GTS467 (4 mg/kg). 10 min post treatment, the rats were placed in the middle of the elevated plus maze (EPM). Time spent in closed and open arms were recorded for 5 min. Frequency of entries in open and close arms was recorded.

The test system of a further data set is NR2A, NR2B, NR1. The data set can be described thus: Western blot of cortex and striatum of treated PD rats: NMDA receptor subunits. In kind it is in vivo, rat. Here is the method:
Cortex and striatum were separately collected, and homogenates were prepared. Homogenates were centrifuged to obtain the protein extract in membrane and cytoplasmic fraction. Protein was estimated for each individual samples. Protein lysates were mixed with 6× loading buffer (5:1 ratio) and were heated (95° C. for 5 min). 20 μg protein was loaded to Tris-Glycine Mini gel for separation at […] for 2 h. Separated proteins were transferred to a PVDF membrane. 3% BSA was used for blocking the nontarget proteins to avoid noise. Membrane was incubated with primary Ab overnight at 4° C. followed by secondary Ab incubation for 3 h at room temperature. The protein bands were detected using ECL methods. The bands were quantified using Image J software.

Regarding `COc1ccc(NC(=O)C(=O)NCC(c2ccccc2)N2CCN(C)CC2)cc1` (centres unmarked) [GT467, N1-(4-methoxyphenyl)-N2-(2-(4-methylpiperazin-1-yl)-2-phenylethyl)oxalamide], the “Locomotor ability (grid lines crossed in 30 seconds)” value in data set [1] is reported as “restores the Huntington's disease model flies' locomotor ability”. For the same compound, the Distance moved entry in data set [2] was “significantly increased”. The “Anxiety (time spent in open vs. closed arm of EPM)” value with PD rats was “did not induce anxiety”. Moreover, the NR1 expression entry with NR2A, NR2B, NR1 (cortex (CRTX)) is listed as “reduced in CRTX”. For the same compound, the “NR2A, 2B and NR1 expressions” value in the data set on NR2A, NR2B, NR1 (synaptic level) is “elevation of NR2A, 2B and NR1 expressions”.
